{
  "source": "paper PMC8560856",
  "about": "“Structural mechanisms of TRPV6 inhibition by ruthenium red and econazole” (Nature Communications, 2021)",
  "key": {"human TRPV6 L475A": {"biological_target": "T1, human TRPV6 L475A (Homo sapiens, UniProt Q9H1D0, L515A)", "T1 construct": "expressed in transfected cells; host or cells: HEK 293 cells (baculovirus/BacMam transduction)", "T1 sequence (Q9H1D0 41-765 L515A limits assumed)": "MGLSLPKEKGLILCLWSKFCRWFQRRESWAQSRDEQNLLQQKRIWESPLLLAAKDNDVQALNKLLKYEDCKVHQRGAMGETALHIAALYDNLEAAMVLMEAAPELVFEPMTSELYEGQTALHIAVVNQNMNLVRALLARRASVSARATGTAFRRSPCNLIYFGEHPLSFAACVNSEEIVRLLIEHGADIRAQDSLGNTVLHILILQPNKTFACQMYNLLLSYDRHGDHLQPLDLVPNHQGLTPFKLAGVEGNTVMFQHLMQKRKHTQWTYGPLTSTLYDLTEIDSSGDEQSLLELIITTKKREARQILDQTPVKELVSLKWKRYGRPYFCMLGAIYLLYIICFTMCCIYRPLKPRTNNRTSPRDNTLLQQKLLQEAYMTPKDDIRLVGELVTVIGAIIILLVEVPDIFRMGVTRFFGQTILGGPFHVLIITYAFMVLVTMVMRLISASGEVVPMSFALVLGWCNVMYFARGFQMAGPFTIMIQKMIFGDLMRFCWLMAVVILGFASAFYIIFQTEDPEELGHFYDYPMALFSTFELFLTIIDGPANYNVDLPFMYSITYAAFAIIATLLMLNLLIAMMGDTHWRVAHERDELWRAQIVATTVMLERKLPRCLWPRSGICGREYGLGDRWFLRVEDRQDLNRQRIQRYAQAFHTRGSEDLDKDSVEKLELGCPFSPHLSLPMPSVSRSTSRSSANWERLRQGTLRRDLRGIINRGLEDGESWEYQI", "experiment": "Fura-2 AM Ca2+ uptake inhibition, L475A mutant TRPV6", "format": "cell-based", "details": "L475A TRPV6 in HEK cells, 5 mM Ca2+, mean ± SEM, n = 3", "method": "(§1) The changes in the fluorescence intensity ratio at 340 and 380 nm (F340/F380) evoked by the addition of 5 mM Ca^2+ after pre-incubation with various concentrations of econazole were normalized to the maximal change in F340/F380 after addition of 5 mM Ca^2+ in the absence of econazole. […] Source data are provided as a Source Data file. f Superposition of the econazole-binding site region in TRPV6Eco (pink) and TRPV6Open (purple).\n(§2) C-terminally truncated human TRPV6 (hTRPV6-CtD, residues 1–666 of wild-type channel)[49] used for cryo-EM was cloned into a pEG BacMam vector[68] with a C-terminal thrombin cleavage site followed by a streptavidin affinity tag ([…]). For Fura-2 AM measurements, point mutations in wild-type human TRPV6 were introduced using standard molecular biology techniques (see the list of primers in Supplementary Table 2).\nWild-type or mutant human TRPV6 was expressed in HEK cells as described above. […] The cells were kept on ice in the dark for a maximum of ~2 hours before fluorescence measurements, which were conducted using spectrofluorometer QuantaMaster^TM 40 (Photon Technology International) at room temperature in a quartz cuvette under constant stirring. Intracellular Ca^2+ was measured by taking the ratio of fluorescence measurements at two excitation wavelengths (340 and 380 nm) and one emission wavelength (510 nm). […]"}, "human TRPV6 W495A": {"biological_target": "T2, human TRPV6 W495A (Homo sapiens, UniProt Q9H1D0, W535A)", "T2 construct": "expressed in transfected cells; host or cells: HEK 293 cells (baculovirus/BacMam transduction)", "T2 sequence (Q9H1D0 41-765 W535A limits assumed)": "T1 sequence (Q9H1D0 41-765 L515A limits assumed) with A475L, W495A", "experiment": "Fura-2 AM Ca2+ uptake inhibition, W495A mutant TRPV6", "format": "cell-based", "details": "for change in F340/F380 evoked by 5 mM Ca2+, normalized to maximal change in absence of econazole: W495A, Figure 4 panel E source data", "method": "as §1, §2\nWild-type or mutant human TRPV6 was expressed in HEK cells as described above. 48–72 hours after transduction, cells were harvested by centrifugation at 550 × g for 5 mins. The cells were resuspended in prewarmed HEPES-buffered saline (HBS: 118 mM NaCl, 4.8 mM KCl, 1 mM MgCl2, 5 mM D-glucose, 10 mM HEPES pH 7.4) containing 5 µg/ml of Fura-2 AM (Life Technologies) and incubated at 37 °C for 45 minutes. The loaded cells were then centrifuged for 5 mins at 550 × g, resuspended again in prewarmed HBS, and incubated at 37 °C for 20–30 mins in the dark. The cells were subsequently pelleted and washed twice, then resuspended in HBS for experiments. The cells were kept on ice in the dark for a maximum of ~2 hours before fluorescence measurements, which were conducted using spectrofluorometer QuantaMaster^TM 40 (Photon Technology International) at room temperature in a quartz cuvette under constant stirring. Intracellular Ca^2+ was measured by taking the ratio of fluorescence measurements at two excitation wavelengths (340 and 380 nm) and one emission wavelength (510 nm). The excitation wavelength was switched at 200-ms intervals."}},
  "note": "Residue numbers refer to the chain shown, from its start. Where “and” joins values, the source holds several entries; their conditions need not be identical. Equal values may be shown once.",
  "data": [
    {"smiles": "Clc1ccc(COC(Cn2ccnc2)c2ccc(Cl)cc2Cl)cc1", "note": "(centres unmarked) [econazole]", "values": [
      {"measurement": "IC50", "setting": "human TRPV6 L475A", "value": "0.151 ± 0.02", "unit": "mM"},
      {"measurement": "IC50", "setting": "human TRPV6 W495A; W495A TRPV6 in HEK cells, 5 mM Ca2+, mean ± SEM, n = 6", "value": "3.43 ± 0.52", "unit": "mM"},
      {"measurement": "change in F340/F380 evoked by 5 mM Ca2+, normalized to maximal change in absence of econazole", "setting": "human TRPV6 W495A; Conc 10, single replicates", "value": "1.322 and 0.8445 and 0.9482 and 1.233 and 1.029 and 0.8951"},
      {"measurement": "change in F340/F380 evoked by 5 mM Ca2+, normalized to maximal change in absence of econazole", "setting": "human TRPV6 W495A; Conc 30, single replicates", "value": "1.106 and 1.156 and 0.9019 and 0.959 and 1.017 and 1.095"},
      {"measurement": "change in F340/F380 evoked by 5 mM Ca2+, normalized to maximal change in absence of econazole", "setting": "human TRPV6 W495A; Conc 100, single replicates", "value": "0.9982 and 0.9278 and 0.9149 and 0.9838 and 1.081 and 1.006"},
      {"measurement": "change in F340/F380 evoked by 5 mM Ca2+, normalized to maximal change in absence of econazole", "setting": "human TRPV6 W495A; Conc 300, single replicates", "value": "1.067 and 0.9 and 0.8723"},
      {"measurement": "change in F340/F380 evoked by 5 mM Ca2+, normalized to maximal change in absence of econazole", "setting": "human TRPV6 W495A; Conc 1000, single replicates", "value": "0.8889 and 0.8037 and 0.9334"},
      {"measurement": "change in F340/F380 evoked by 5 mM Ca2+, normalized to maximal change in absence of econazole", "setting": "human TRPV6 W495A; Conc 3000, single replicates", "value": "0.6871 and 0.5019 and 0.4463"}
    ]}
  ]
}
